The first data set can be described thus: Probability of Ingredient Color Instability. Format: physicochemical.
Settings: not given
For `Cc1ccc(OC(=O)Cc2ccccc2)cc1` [Material 998], the “Probability of Ingredient Color Instability (Comment Code E/F)” value (“Probability … (Comment Code E/F)” below) is “F (Probability of Ingredient Color Instability<71%)”. Turning to `COc1ccc(COC(=O)Cc2ccccc2)cc1` [Material 663], the “Probability … (Comment Code E/F)” value is “F (Probability of Ingredient Color Instability<71%)”.

`CCC(C)CCCC(C)C=O` (stereo not shown) [Material 866]: the “Probability … (Comment Code E/F)” value is recorded as “F (Probability of Ingredient Color Instability<71%)”.

For the molecule `CCC(=O)OCC(=O)OC(C)C1CCCC(C)(C)C1` (stereo not shown) [Material 1009], the “Probability … (Comment Code E/F)” value is given as “F (Probability of Ingredient Color Instability<71%)”. The same measure, in the same setting: the same measure for `CCCCCC1C(=O)CCC1C` (stereo not shown) [Material 1053]: “F (Probability of Ingredient Color Instability<71%)”; for `CC1=CCCC(C)(C)C12CCC(C)O2` (stereo not shown) [Material 1057]: “F (Probability of Ingredient Color Instability<71%)”.

Staying with this data set, now noted: class code letter within Comment Code.
Regarding `CCCCCCC1=CCCC1=O` [Material 209], the “Probability … (Comment Code E/F)” value is listed as “F (Probability of Ingredient Color Instability<71%)”.

As to `CC=Cc1ccc(OCc2ccccc2)c(OC)c1` [Material 212], the “Probability … (Comment Code E/F)” value was “F (Probability of Ingredient Color Instability<71%)”. The same measure, in the same setting: the same measure for `O=C1CCCCCCCCCCC(=O)OCCO1` [Material 485]: “F (Probability of Ingredient Color Instability<71%)”. As for `C=CC(C)(CCC=C(C)C)OC(=O)c1ccccc1` (stereo not shown) [Material 152], the “Probability … (Comment Code E/F)” value is listed as “F (Probability of Ingredient Color Instability<71%)”. For the molecule `CCCCCCC(=O)CC` [Material 394], the “Probability … (Comment Code E/F)” value is given as “F (Probability of Ingredient Color Instability<71%)”. `CC(C)=CCCC(C)=CCOC(=O)Cc1ccccc1` [Material 300]: the “Probability … (Comment Code E/F)” value was “F (Probability of Ingredient Color Instability<71%)”. Regarding `O=C1CCCCCCCCCCCC(=O)OCCO1` [Material 378], the “Probability … (Comment Code E/F)” value is “F (Probability of Ingredient Color Instability<71%)”. The same measure, in the same setting: the result for `COc1c2ccoc2c(OC)c2oc(=O)ccc12` [Material 199] reads “F (Probability of Ingredient Color Instability<71%)”; that for `O=CC1CCC2C3CCC(C3)C12` (stereo not shown) [Material 130], “F (Probability of Ingredient Color Instability<71%)”.

Consider `CC1=CC(C)C(C=O)C(C)C1` (stereo not shown) [Material 218], for which the “Probability … (Comment Code E/F)” value is given as “F (Probability of Ingredient Color Instability<71%)”.

Regarding `O=C(OC1CCCCC1)c1ccccc1O` [Material 482], the “Probability … (Comment Code E/F)” value was “F (Probability of Ingredient Color Instability<71%)”.

`CC1COC(C)(c2ccc3c(c2)C(C)(C)CCC3(C)C)O1` (stereo not shown) [Material 2]: the “Probability … (Comment Code E/F)” value is recorded as “F (Probability of Ingredient Color Instability<71%)”. Still for that read-out and setting: the same measure for `C=CC(C)(CCC=C(C)C)OC(=O)c1ccccc1N` (stereo not shown) [Material 153]: “F (Probability of Ingredient Color Instability<71%)”.

Regarding `CCCCCCCCCC(C)=O` [Material 102], the “Probability … (Comment Code E/F)” value is reported as “F (Probability of Ingredient Color Instability<71%)”. On to `C/C=C/CCC1CCCC(=O)O1` (stereo not shown) [Material 187], for which the “Probability … (Comment Code E/F)” value is on record as “F (Probability of Ingredient Color Instability<71%)”. The same measure, in the same setting: the same measure for `CCC(C)(C)C1CCC(=O)CC1` [Material 21]: “F (Probability of Ingredient Color Instability<71%)”; for `CCCCCCCCC(C)C=O` (stereo not shown) [Material 92]: “F (Probability of Ingredient Color Instability<71%)”; for `CCCCCCC1CCCC1=O` (stereo not shown) [Material 189]: “F (Probability of Ingredient Color Instability<71%)”.

The data set is the same for the next values; noted with them: codes E/F of the Comment Code, Table 1.
`COC(=O)c1ccccc1N=CC(C)Cc1ccc(C(C)(C)C)cc1` (stereo not shown) [Material 1121]: the “Comment Code: Probability of Ingredient Color Instability” value is given as “F (Probability of Ingredient Color Instability<71%)”.

For the origin of these results see patent publication US20160090556A1, “PRODUCTS COMPRISING MALODOR REDUCTION MATERIALS” (The Procter & Gamble Company, priority 2014, published 2016).
